ChEMBL document CHEMBL1201862, “PubChem BioAssay data set” (2004)
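96-well plates; 48 h exposure; 5 concentrations. Endpoints by linear interpolation between flanking doses. Not reached: highest tested concentration assigned. Abbreviation: GI50, concentration required for 50% inhibition of growth.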 Calls of active or inactive are those of the source. No stated cut-off is given here; in the data, active = GI50 up to about 1.1 µM and inactive = higher.

Columns and labels:
Assay in all cases: NCI anticancer screen, dose series, 48 h
COLO 205 = test system: COLO 205
HT-29 = test system: HT-29
Hs-578T = test system: Hs-578T
K562 = test system: K562
MCF7 = test system: MCF7
MDA-MB-435 = test system: MDA-MB-435
MDA-N = test system: MDA-N
NCI-H460 = test system: NCI-H460
OVCAR-5 = test system: OVCAR-5
RPMI-8226 = test system: RPMI-8226
SF-268 = test system: SF-268
SN12C = test system: SN12C
SNB-75 = test system: SNB-75
SW-620 = test system: SW-620
U-251 = test system: U-251
UACC-257 = test system: UACC-257
UACC-62 = test system: UACC-62
OVCAR-4 = test system: OVCAR-4
SNB-19 = test system: SNB-19

SMILES | GI50 (COLO 205) | GI50 (HT-29) | GI50 (Hs-578T) | GI50 (K562) | GI50 (MCF7) | GI50 (MDA-MB-435) | GI50 (MDA-N) | GI50 (NCI-H460) | GI50 (OVCAR-5) | GI50 (RPMI-8226) | GI50 (SF-268) | GI50 (SN12C) | GI50 (SNB-75) | GI50 (SW-620) | GI50 (U-251) | GI50 (UACC-257) | GI50 (UACC-62) | GI50 (OVCAR-4) | GI50 (SNB-19)
O=C(CN1CCN(c2ccccc2)CC1)c1ccc2[nH]c(=O)oc2c1 | > 100 µM (inactive) | > 100 µM (inactive) | 70 µM (inactive) | > 100 µM (inactive) | > 100 µM (inactive) | > 100 µM (inactive) | > 100 µM (inactive) | > 100 µM (inactive) | > 100 µM (inactive) | > 100 µM (inactive) | > 100 µM (inactive) | > 100 µM (inactive) | > 100 µM (inactive) | > 100 µM (inactive) | 35.6 µM (inactive) | > 100 µM (inactive) | > 100 µM (inactive) | – | –
COc1cc(C=C2C(C)=NN(c3cccc(Cl)c3)C23C(Cl)C(=O)N3c2nc3ccccc3s2)ccc1O (stereo unspecified) | – | 4.53 µM (inactive) | 7.36 µM (inactive) | 3.61 µM (inactive) | 28.2 µM (inactive) | 12.4 µM (inactive) | 16.3 µM (inactive) | 25.4 µM (inactive) | 20.7 µM (inactive) | 7.26 µM (inactive) | 3.09 µM (inactive) | – | – | 10.7 µM (inactive) | 15 µM (inactive) | 23.1 µM (inactive) | – | 28.5 µM (inactive) | –
COC(=O)c1c(O)ccc2c1C1(Cc3ccccc3C1=O)C(O)O2 (stereo unspecified) | 35.6 µM (inactive) | 43.2 µM (inactive) | 23.3 µM (inactive) | 12.8 µM (inactive) | 12.6 µM (inactive) | 13.4 µM (inactive) | 13.7 µM (inactive) | 8.85 µM (inactive) | 17.5 µM (inactive) | 2.88 µM (inactive) | 15.6 µM (inactive) | 16.4 µM (inactive) | – | 25.1 µM (inactive) | 20.5 µM (inactive) | > 100 µM (inactive) | – | 16.2 µM (inactive) | 43.4 µM (inactive)
COc1ccc(CCN2C(=O)C(=O)C(C(=O)c3ccccc3)C2c2ccccc2)cc1OC (stereo unspecified) | > 100 µM (inactive) | > 100 µM (inactive) | 41.6 µM (inactive) | > 100 µM (inactive) | > 100 µM (inactive) | > 100 µM (inactive) | > 100 µM (inactive) | > 100 µM (inactive) | > 100 µM (inactive) | 51.2 µM (inactive) | > 100 µM (inactive) | 67.8 µM (inactive) | – | > 100 µM (inactive) | > 100 µM (inactive) | > 100 µM (inactive) | > 100 µM (inactive) | – | > 100 µM (inactive)
Cc1nc2ccccc2c(-n2cccn2)c1CCn1cccn1 | 96.6 µM (inactive) | > 100 µM (inactive) | > 100 µM (inactive) | 55 µM (inactive) | > 100 µM (inactive) | > 100 µM (inactive) | > 100 µM (inactive) | > 100 µM (inactive) | > 100 µM (inactive) | > 100 µM (inactive) | > 100 µM (inactive) | > 100 µM (inactive) | – | > 100 µM (inactive) | > 100 µM (inactive) | > 100 µM (inactive) | 80.2 µM (inactive) | 23.8 µM (inactive) | > 100 µM (inactive)
CCOC(=O)CCc1c(C(=O)OCC)[nH]c(/C=C2/NC(=O)C(C)=C2CC)c1C | 14 µM (inactive) | 10.4 µM (inactive) | 25.1 µM (inactive) | 0.0494 µM (active) | 5 µM (inactive) | 6.73 µM (inactive) | 5.83 µM (inactive) | 32.7 µM (inactive) | 29.5 µM (inactive) | – | 10.2 µM (inactive) | 16.9 µM (inactive) | 15.4 µM (inactive) | 23.2 µM (inactive) | 11.2 µM (inactive) | 10.1 µM (inactive) | 4.9 µM (inactive) | 2.9 µM (inactive) | 13.1 µM (inactive)
